Reference: patent US11840686B2, “Modulation of prekallikrein (PKK) expression” (Ionis Pharmaceuticals, Inc., priority 2013, dated 2023)
Strand notation (5' to 3'): a small letter for the sugar, then the base; units joined by * are phosphorothioate-linked, units joined directly phosphodiester-linked; [ ] holds rarer units or linkages, { } end groups; capitals alone tell only the bases. e = 2'-O-(2-methoxyethyl) (MOE); [5mC] = 5-methylcytosine; d = 2'-deoxy (DNA)

System: human PKK mRNA
Experiment: Antisense inhibition of human PKK mRNA in HepaRG cells, 5,000 nM (Example 2)
Assay type: cell-based
Protocol: Additional antisense oligonucleotides were designed targeting a PKK nucleic acid and were tested for their effects on PKK mRNA in vitro.
The chimeric antisense oligonucleotides in the tables below were designed as 5-10-5 MOE gapmers, 4-9-4 MOE gapmers, 4-10-4 MOE gapmers, 4-10-3 MOE gapmers, 3-10-4 MOE gapmers, or 3-10-3 MOE gapmers. The 5-10-5 MOE gapmers are 20 nucleosides in length, wherein the central gap segment comprises of ten 2′-deoxynucleosides and is flanked by wing segments on the 5′ direction and the 3′ direction comprising five nucleosides each. The 4-9-4 MOE gapmers are 17 nucleosides in length, wherein the central gap segment comprises of nine 2′-deoxynucleosides and is flanked by wing segments on the 5′ direction and the 3′ direction comprising four nucleosides each. The 4-10-4 MOE gapmers are 18 nucleosides in length, wherein the central gap segment comprises of ten 2′-deoxynucleosides and is flanked by wing segments on the 5′ direction and the 3′ direction comprising four nucleosides each. The 4-10-3 MOE gapmers are 17 nucleosides in length, wherein the central gap segment comprises of ten 2′-deoxynucleosides and is flanked by wing segments on the 5′ direction and the 3′ direction comprising four and three nucleosides respectively. The 3-10-4 MOE gapmers are 17 nucleosides in length, wherein the central gap segment comprises often 2′-deoxynucleosides and is flanked by wing segments on the 5′ direction and the 3′ direction comprising three and four nucleosides respectively. The 3-10-3 MOE gapmers are 16 nucleosides in length, wherein the central gap segment comprises of ten 2′-deoxynucleosides and is flanked by wing segments on the 5′ direction and the 3′ direction comprising three nucleosides each. Each nucleoside in the 5′ wing segment and each nucleoside in the 3′ wing segment has a 2′-O-methoxyethyl modification. The internucleoside linkages throughout each gapmer are phosphorothioate linkages. All cytosine residues throughout each gapmer are 5-methylcytosines. “Start site” indicates the 5′-most nucleoside to which the gapmer is targeted in the human gene sequence. “Stop site” indicates the 3′-most nucleoside to which the gapmer is targeted in the human gene sequence.
Cultured HepaRG™ cells at a density of 20,000 cells per well were transfected using electroporation with 5,000 nM antisense oligonucleotide. After a treatment period of approximately 24 hours, RNA was isolated from the cells and PKK mRNA levels were measured by quantitative real-time PCR. Human primer probe set RTS3454 was used to measure mRNA levels. PKK mRNA levels were adjusted according to total RNA content, as measured by RIBOGREEN®. The antisense oligonucleotides were tested in a series of experiments that had similar culture conditions. Results are presented as percent inhibition of PKK, relative to untreated control cells.

[1] = human PKK mRNA, HepaRG cells, 5-10-5 motif oligonucleotides targeting SEQ ID NO: 1 and 10
[2] = HepaRG cells, electroporation, 5,000 nM antisense oligonucleotide, approx. 24 hours, primer probe set RTS3454, relative to untreated control cells, Table 12
[3] = Table 7, HepaRG cells, electroporation with 5,000 nM antisense oligonucleotide, approx. 24 hours, PKK mRNA by RT-PCR (RTS3454), relative to untreated control cells
[4] = HepaRG cells, 5,000 nM antisense oligonucleotide, 5-10-5 gapmers, Table 17
[5] = Table 9 experiment, HepaRG cells, 20,000 cells per well, electroporation with 5,000 nM antisense oligonucleotide, approx. 24 hours, PKK mRNA by RT-PCR (RTS3454), relative to untreated control cells
[6] = Table 10 experiment, HepaRG cells, 20,000 cells per well, electroporation with 5,000 nM antisense oligonucleotide, approx. 24 hours, PKK mRNA by RT-PCR (RTS3454), relative to untreated control cells
[7] = human PKK mRNA in HepaRG cells, 5-10-5 gapmers, Table 14
[8] = HepaRG cells, 5,000 nM antisense oligonucleotide, 5-10-5 gapmers, Table 16
[9] = human PKK mRNA, HepaRG cells, 5,000 nM antisense oligonucleotide, Table 18
[10] = HepaRG cells, electroporation, 5,000 nM antisense oligonucleotide, approx. 24 hours, primer probe set RTS3454, relative to untreated control cells, Table 11
[11] = HepaRG cells, electroporation with 5,000 nM antisense oligonucleotide, approximately 24 hours, PKK mRNA by RT-PCR (RTS3454), relative to untreated control cells, Table 6 experiment

Substance: 547645 (eA*eT*eA*eT*e[5mC]*dA*d[5mC]*dT*dG*dT*d[5mC]*d[5mC]*dT*dA*dT*eA*eA*e[5mC]*eT*eA; antisense) [compound 547645]
- % inhibition [1]: 60%

Substance: 546698 (eT*eG*e[5mC]*eA*eG*dA*dG*dT*dG*dT*d[5mC]*dA*dT*d[5mC]*dT*eG*e[5mC]*eG*eA*eA; antisense) [compound 546698]
- % inhibition [2]: 59%

Substance: 547380 (eT*eG*eA*e[5mC]*eT*d[5mC]*dG*dA*dT*dT*dT*dT*d[5mC]*d[5mC]*dA*eT*eA*e[5mC]*eA*eT; antisense) [compound 547380]
- % inhibition [3]: 42%

Substance: 547024 (eG*eG*eA*eT*eT*dG*dG*dT*dG*dG*d[5mC]*dG*dG*dG*dA*eT*e[5mC]*eG*eG*eT; antisense) [compound 547024]
- % inhibition [4]: 56%

Substance: 547463 (antisense eT*eA*eG*eG*e[5mC]*dA*dT*dA*dT*dT*dG*dG*dT*dT*dT*eT*eT*eG*eG*eA) [compound 547463]
- % inhibition [5]: 74%
- % inhibition [6]: 84%

Substance: 546861 (eT*eA*eA*e[5mC]*eA*dA*dT*dA*dT*d[5mC]*dA*d[5mC]*dT*dG*dT*e[5mC]*e[5mC]*eT*eA*eT; antisense) [compound 546861]
- % inhibition [7]: 68%

Substance: 546492 (e[5mC]*eT*e[5mC]*eG*e[5mC]*d[5mC]*dT*dT*dT*dG*dT*dG*dA*d[5mC]*dT*e[5mC]*eG*eA*eT*eT; antisense) [compound 546492]
- % inhibition [2]: 61%

Substance: 547693 (antisense eT*e[5mC]*eA*e[5mC]*eT*dG*dT*dA*d[5mC]*d[5mC]*dT*dA*dT*dA*dA*e[5mC]*eT*eG*eT*eA) [compound 547693]
- % inhibition [8]: 61%

Substance: 546918 (eA*eA*e[5mC]*eA*eT*d[5mC]*dA*d[5mC]*dT*dG*dT*dA*d[5mC]*d[5mC]*dT*eA*eT*eA*eA*e[5mC]; antisense) [compound 546918]
- % inhibition [8]: 14%

Substance: 548761 (antisense e[5mC]*eT*eA*eA*d[5mC]*dA*dG*dT*dA*dT*d[5mC]*dA*d[5mC]*eT*eG*eT*eA) [compound 548761]
- % inhibition [9]: 49%

Substance: 547663 (eT*eA*e[5mC]*e[5mC]*eT*dA*dT*dA*dA*d[5mC]*dT*dA*dT*dA*dA*e[5mC]*eA*eG*eT*eA; antisense) [compound 547663]
- % inhibition [1]: 10%

Substance: 546908 (eT*e[5mC]*eA*e[5mC]*eT*dG*dT*dA*d[5mC]*d[5mC]*dT*dA*dT*dA*dA*e[5mC]*eT*eA*eT*eA; antisense) [compound 546908]
- % inhibition [1]: 77%

Substance: 547515 (antisense eA*eG*eA*eA*eG*dA*dT*dG*d[5mC]*d[5mC]*dA*d[5mC]*dT*d[5mC]*dT*e[5mC]*e[5mC]*eA*eT*eG) [compound 547515]
- % inhibition [10]: 58%

Substance: 547540 (antisense eT*eT*eG*eT*eG*dT*dG*dG*d[5mC]*d[5mC]*d[5mC]*dT*d[5mC]*dT*dT*eA*eA*eG*eT*e[5mC]) [compound 547540]
- % inhibition [2]: 44%

Substance: 547776 (antisense eG*eG*eA*eG*eA*dG*dA*dG*dA*d[5mC]*dG*dG*d[5mC]*dA*d[5mC]*e[5mC]*e[5mC]*eT*eG*eT) [compound 547776]
- % inhibition [4]: 48%

Substance: 547025 (eT*eG*eG*eT*eG*dG*dT*dG*dG*dG*dA*dT*dT*dG*dG*eT*eG*eG*eT*eT; antisense) [compound 547025]
- % inhibition [4]: 72%

Substance: 547581 (eA*eT*eA*eT*e[5mC]*dA*d[5mC]*dT*dG*dT*d[5mC]*d[5mC]*dT*dA*dT*eA*eA*e[5mC]*eT*e[5mC]; antisense) [compound 547581]
- % inhibition (Table 13, human PKK mRNA in HepaRG cells, 5-10-5 gapmers): 60%

Substance: 546231 (e[5mC]*eT*eT*eG*eG*dT*dG*dT*dG*d[5mC]*d[5mC]*dA*d[5mC]*dT*dT*eT*e[5mC]*eA*eG*eA; antisense) [compound 546231]
- % inhibition [3]: 79%

Substance: 548718 (DNA eT*eA*e[5mC]*dT*dA*dG*dT*dT*dT*d[5mC]*d[5mC]*dT*dA*eT*eA*eA*e[5mC]; antisense) [compound 548718]
- % inhibition (HepaRG cells, 5,000 nM antisense oligonucleotide, human PKK mRNA, Table 18): 0%

Substance: 547603 (antisense eT*eA*eT*e[5mC]*eA*d[5mC]*dT*dG*dT*dA*d[5mC]*d[5mC]*dT*dA*dT*eA*eA*e[5mC]*eT*e[5mC]) [compound 547603]
- % inhibition [7]: 41%

Substance: 547383 (eT*eT*e[5mC]*eT*eT*dT*dG*dT*dG*dA*d[5mC]*dT*d[5mC]*dG*dA*eT*eT*eT*eT*e[5mC]; antisense) [compound 547383]
- % inhibition [3]: 37%

Substance: 546983 (eG*eA*eT*eG*eA*d[5mC]*d[5mC]*dT*dG*d[5mC]*dA*dG*dA*dT*dG*e[5mC]*eA*e[5mC]*eA*eG; antisense) [compound 546983]
- % inhibition [8]: 74%

Substance: 546378 (antisense eT*eT*eT*eG*e[5mC]*dA*dG*dA*dT*dG*dA*dG*dG*dA*d[5mC]*e[5mC]*e[5mC]*e[5mC]*e[5mC]*e[5mC]) [compound 546378]
- % inhibition [10]: 79%

Substance: 547660 (eA*eA*e[5mC]*eT*eA*dT*dA*dA*d[5mC]*dA*dG*dT*dA*dT*d[5mC]*eA*e[5mC]*e[5mC]*eG*eT; antisense) [compound 547660]
- % inhibition [1]: 68%

Substance: 546497 (e[5mC]*eA*eT*eG*e[5mC]*dA*dT*dA*d[5mC]*dT*d[5mC]*dG*d[5mC]*d[5mC]*dT*eT*eT*eG*eT*eG; antisense) [compound 546497]
- % inhibition [2]: 56%

Substance: 547760 (antisense eA*eT*e[5mC]*eA*eT*dG*d[5mC]*dT*dT*dA*d[5mC]*dT*dG*d[5mC]*dA*eA*eG*eT*eG*eA) [compound 547760]
- % inhibition [4]: 19%

Substance: 548764 (antisense eT*eA*eT*e[5mC]*dA*d[5mC]*dT*dG*dT*d[5mC]*d[5mC]*dT*dA*eT*eA*eA*e[5mC]) [compound 548764]
- % inhibition [9]: 31%

Substance: 547458 (antisense eT*eA*eT*e[5mC]*eA*dA*dG*dG*d[5mC]*dG*dA*dT*dA*dT*d[5mC]*eA*eT*eG*eA*eT) [compound 547458]
- % inhibition [5]: 84%
- % inhibition [6]: 64%

Substance: 547354 (eA*eT*eT*eG*eT*dT*d[5mC]*d[5mC]*dG*dG*dT*dA*d[5mC]*dT*d[5mC]*eT*eG*e[5mC]*e[5mC]*eT; antisense) [compound 547354]
- % inhibition [11]: 89%

Substance: 547551 (antisense eT*e[5mC]*e[5mC]*e[5mC]*e[5mC]*dA*dT*dG*d[5mC]*dA*dT*dA*d[5mC]*dT*d[5mC]*eG*e[5mC]*e[5mC]*eT*eT) [compound 547551]
- % inhibition [2]: 38%

Substance: 547736 (eT*eG*eG*eT*eA*dG*dG*dA*dT*dT*dG*dG*dT*dG*dG*eT*eG*eG*eG*eA; antisense) [compound 547736]
- % inhibition [4]: 54%

Substance: 546339 (antisense e[5mC]*eT*eT*eG*eA*dT*dA*dT*d[5mC]*dT*dT*dT*dT*d[5mC]*dT*eG*eG*e[5mC]*eA*eT) [compound 546339]
- % inhibition [5]: 65%
- % inhibition [6]: 64%

Substance: 547388 (eT*eA*eT*eG*eG*dT*dG*dT*dT*dT*dT*d[5mC]*dT*dT*dG*eA*eG*eG*eA*eG; antisense) [compound 547388]
- % inhibition [3]: 55%

Substance: 546175 (antisense e[5mC]*eT*eG*e[5mC]*eA*d[5mC]*d[5mC]*dT*dG*dT*dT*d[5mC]*dG*dA*dT*eG*eT*eA*e[5mC]*eT) [compound 546175]
- % inhibition [11]: 78%

Substance: 547506 (antisense eA*eG*eG*e[5mC]*eT*d[5mC]*dA*dG*dA*dA*dT*dT*dT*dG*dA*e[5mC]*eT*eT*eG*eA) [compound 547506]
- % inhibition [10]: 78%

Substance: 547654 (eT*eA*eT*e[5mC]*eA*d[5mC]*dT*dG*dT*dA*d[5mC]*d[5mC]*dT*dA*dT*eA*eA*e[5mC]*eA*eG; antisense) [compound 547654]
- % inhibition [1]: 53%
